# Test results from patent publication US20250282812A1, “ANTIVIRAL NUCLEOSIDE ANALOGUE, AND PHARMACEUTICAL COMPOSITION AND USE THEREOF” (SHANGHAI INSTITUTE OF MATERIA MEDICA , CHINESE ACADEMY OF …, priority 2022, published 2025).
# Where a name gives a salt, the structure may show the parent alone.
# Tests used:
# [1] = system: influenza virus (IFV) A/California/07/2009 (H1N1) pdm09 strain; assay: In vitro activity against influenza virus (CPE, CCK8, MDCK cells); type: cell-based; conditions: 120 h; for EC50: read-out: IFV (MDCK) EC50
# [2] = system: respiratory syncytial virus (RSV) A long strain; assay: In vitro activity against respiratory syncytial virus (CPE, CCK8, HEp-2 cells); type: cell-based; conditions: human respiratory syncytial virus, 120 h, MOI=0.02, 5 days; for inhibition at 5 µM: read-out: RSV (HEp-2) inhibition rate at a concentration of 5 μM
# SFTSV-Nluc = assay: microbe, parasite or virus in culture; type: cell-based, severe fever with thrombocytopenia syndrome virus (SFTSV); conditions: Severe fever with thrombocytopenia syndrome virus, Vero, 48 h; for inhibition at 10 µM: read-out: Inhibition rate (10 μM)
# in vitro = conditions: dog
# [3] = Cytotoxicity in HEp-2 cells (CCK8); conditions: human
# [4] = Stability test of compounds in solutions at different pH values
SMILES,EC50 [1] [nM],EC50 [2] [nM],CC50 (in vitro) [µM],CC50 at 5 days [3] [µM],also measured
CC(C)C(=O)OCn1c(=O)ccn([C@@H]2O[C@](F)(COC(=O)C3CCCCC3)[C@@H](O)[C@H]2O)c1=O [Compound X61],< 370,2040,> 10,> 10,EC50 (SFTSV-Nluc): 590 nM; inhibition at 10 µM (SFTSV-Nluc): 96.1%
CC(C)C(=O)OCn1c(=O)ccn([C@@H]2O[C@](F)(COC(=O)c3cccnc3)[C@@H](O)[C@H]2O)c1=O [Compound X208],< 370,1090,> 10,,
CC(C)C(=O)OC[C@@]1(F)O[C@@H](n2ccc(=O)n(COC(=O)C3CCN(C)CC3)c2=O)[C@H](OC(=O)C(C)C)[C@@H]1OC(=O)C(C)C [Compound X205],< 370,2560,> 10,> 10,
O=C1O[C@H]2[C@H](n3ccc(=O)n(COC(=O)c4cccnc4)c3=O)O[C@](F)(COC(=O)c3cccnc3)[C@H]2O1 [Compound X233],460,1200,> 10,> 10,
CC(C)C(=O)OC[C@@]1(F)O[C@@H](n2ccc(=O)n(COC(=O)[C@@H]3CCCN3)c2=O)[C@H](OC(=O)C(C)C)[C@@H]1OC(=O)C(C)C [Compound X266],894,1020,> 10,> 10,EC50 (SFTSV-Nluc): 2070 nM; inhibition at 10 µM (SFTSV-Nluc): 94.6%
CC(C)C(=O)OCn1c(=O)ccn([C@@H]2O[C@](F)(COC(=O)C(C)C)[C@@H](OC(=O)C(C)C)[C@H]2OC(=O)C(C)C)c1=O [Compound X201],560,1510,> 10,> 10,
CC(C)C(=O)OCn1c(=O)ccn([C@@H]2O[C@](F)(CO)[C@@H](O)[C@H]2O)c1=O [Compound X43],500,2320,> 10,> 10,
CCC(=O)OC[C@@]1(F)O[C@@H](n2ccc(=O)n(COC(=O)c3cccnc3)c2=O)[C@H](OC(=O)CC)[C@@H]1OC(=O)CC [Compound X220],819,1290,> 10,> 10,
CCC(CC)C(=O)OC[C@@]1(F)O[C@@H](n2ccc(=O)n(COC(=O)c3cccnc3)c2=O)[C@H](O)[C@@H]1O [Compound X211],3340,5820,> 10,> 10,
CC(C)C(=O)O[C@H]1[C@H](n2ccc(=O)n(COC(=O)c3cccnc3)c2=O)O[C@](F)(COC(=O)c2cccnc2)[C@H]1OC(=O)C(C)C [Compound X257],1380,1640,> 10,> 10,
CC(C)C(=O)OC[C@@]1(F)O[C@@H](n2ccc(=O)n(COC(=O)CCCN(C)C)c2=O)[C@@H]2OC(=O)O[C@@H]21 [Compound X185],,,,> 5,inhibition at 5 µM [2]: 94.7%
CCN(CC)CC(=O)OCn1c(=O)ccn([C@@H]2O[C@](F)(COC(=O)C(C)C)[C@@H](OC(=O)C(C)C)[C@H]2OC(=O)C(C)C)c1=O [Compound X260],< 370,2340,> 10,> 10,
CC(C)C(=O)OCn1c(=O)ccn([C@@H]2O[C@](F)(COC(=O)C(C)C)[C@H]3OC(=O)O[C@@H]23)c1=O [Compound X113],< 370,1970,> 10,> 10,
CC(C)C(=O)OCn1c(=O)ccn([C@@H]2O[C@](F)(CO)[C@H]3OC(=O)O[C@@H]23)c1=O [Compound X173],460,2620,> 10,> 10,
CCC(CC)C(=O)OCn1c(=O)ccn([C@@H]2O[C@](F)(COC(=O)C(C)C)[C@@H](O)[C@H]2O)c1=O [Compound X52],570,4850,> 10,> 10,"Content reduction (%) ([4]; buffered saline solution pH 4.0, 3 h): 0.9%; Content reduction (%) ([4]; buffered saline solution pH 4.0, 6 h): 1.4%; Content reduction (%) ([4]; buffered saline solution pH 4.0, 9 h): 1.9%; Content reduction (%) ([4]; buffered saline solution pH 4.0, 12 h): 2.2%; Content reduction (%) ([4]; buffered saline solution pH 4.0, 15 h): 2.6%; Content reduction (%) ([4]; buffered saline solution pH 4.0, 18 h): 3.0%; Content reduction (%) ([4]; buffered saline solution pH 4.0, 21 h): 3.4%; Content reduction (%) ([4]; buffered saline solution pH 4.0, 24 h): 3.6%; Content reduction (%) ([4]; buffered saline solution pH 6.8, 3 h): 1.2%; Content reduction (%) ([4]; buffered saline solution pH 6.8, 6 h): 2.3%; Content reduction (%) ([4]; buffered saline solution pH 6.8, 9 h): 3.3%; Content reduction (%) ([4]; buffered saline solution pH 6.8, 12 h): 4.3%; Content reduction (%) ([4]; buffered saline solution pH 6.8, 15 h): 5.4%; Content reduction (%) ([4]; buffered saline solution pH 6.8, 18 h): 6.6%; Content reduction (%) ([4]; buffered saline solution pH 6.8, 21 h): 7.6%; Content reduction (%) ([4]; buffered saline solution pH 6.8, 24 h): 8.7%"
CCCCCCCCCCCCCCCC(=O)OCn1c(=O)ccn([C@@H]2O[C@](F)(COC(=O)CCCCCCCCCCCCCCC)[C@@H](O)[C@H]2O)c1=O [Compound X200],2290,1170,> 10,> 10,
CC(C)=CCOc1ccn([C@@H]2O[C@](F)(COC(=O)C(C)C)[C@@H](O)[C@H]2O)c(=O)n1 [Compound X134],460,1200,> 10,> 10,
O=C(/C=C/c1ccccc1)OCn1c(=O)ccn([C@@H]2O[C@](F)(COC(=O)/C=C/c3ccccc3)[C@@H](O)[C@H]2O)c1=O [Compound X198],,2450,,> 10,
O=C(OCn1c(=O)ccn([C@@H]2O[C@](F)(COC(=O)C3CCCCC3)[C@@H](O)[C@H]2O)c1=O)C1CCCCC1 [Compound X63],< 370,1510,> 10,> 10,
CC(C)(C)C(=O)OC[C@@]1(F)O[C@@H](n2ccc(=O)n(COC(=O)c3cccnc3)c2=O)[C@H](O)[C@@H]1O [Compound X210],< 370,1880,> 10,> 10,
O=C(OCn1c(=O)ccn([C@@H]2O[C@](F)(COC(=O)c3cccnc3)[C@@H](OC(=O)c3cccnc3)[C@H]2OC(=O)c2cccnc2)c1=O)c1cccnc1 [Compound X232],850,1130,> 10,> 10,
CC(C)C(=O)OC[C@@]1(F)O[C@@H](n2ccc(=O)n(COC(=O)CN(C)C)c2=O)[C@H](OC(=O)C(C)C)[C@@H]1OC(=O)C(C)C [X100 hydrochloride],410,1790,> 10,> 10,
CC(C)C(=O)OC[C@@]1(F)O[C@@H](n2ccc(=O)n(COC(=O)c3cccnc3)c2=O)[C@@H]2OC(=O)O[C@@H]21 [Compound X214],< 370,2090,> 10,> 10,
CCC(CC)C(=O)OCn1c(=O)ccn([C@@H]2O[C@](F)(COC(=O)c3cccnc3)[C@@H](O)[C@H]2O)c1=O [Compound X223],820,2140,> 10,> 10,
O=C(OCn1c(=O)ccn([C@@H]2O[C@](F)(COC(=O)c3cccnc3)[C@@H](O)[C@H]2O)c1=O)c1cccnc1 [Compound X231],510,1160,> 10,> 10,
CCC(CC)C(=O)OC[C@@]1(F)O[C@@H](n2ccc(=O)n(COC(=O)C(C)C)c2=O)[C@H](O)[C@@H]1O [Compound X57],,,> 5,> 5,inhibition at 5 µM ([1]; read-out: IFV (MDCK) inhibition rate at a concentration of 5 μM): 90.5%; inhibition at 5 µM [2]: 50.3%
CC(C)C(=O)OC[C@@]1(F)O[C@@H](n2ccc(=O)n(COC(=O)C3CCNCC3)c2=O)[C@H](OC(=O)C(C)C)[C@@H]1OC(=O)C(C)C [Compound X204],650,1520,> 10,> 10,
